# Earlier results as cited in patent US10597696B2, “Detection of Niemann-Pick disease comprising detection of lysozyme and cathepsins” (UNIVERSITY OF NOTRE DAME DU LAC, priority 2013, dated 2020).
# System: Npc1^pf/pf mice
# Conditions: weekly injections to Npc1^pf/pf mice, previous study; cited from earlier work
structure (smiles),measurement,value
"CC(O)COC[C@H]1O[C@@H]2O[C@H]3[C@H](O)[C@@H](O)[C@@H](O[C@H]4[C@H](O)[C@@H](O)[C@@H](O[C@H]5[C@H](O)[C@@H](O)[C@@H](O[C@H]6[C@H](O)[C@@H](O)[C@@H](O[C@H]7[C@H](O)[C@@H](O)[C@@H](O[C@H]8[C@H](O)[C@@H](O)[C@@H](O[C@H]1[C@H](O)[C@H]2O)O[C@@H]8COCC(C)O)O[C@@H]7COCC(C)O)O[C@@H]6COCC(C)O)O[C@@H]5COCC(C)O)O[C@@H]4COCC(C)O)O[C@@H]3COCC(C)O (stereo partly drawn) [HPβCD, 2-hydroxypropyl-beta-cyclodextrin]",disease status,improvement in disease status
